Data set [1] is described as follows: Retention time of the compound by HPLC analysis. The class given is physicochemical.
The species named for the next data set is Homo sapiens. The experiment in a line: Selectivity index, ratio of IC50 for human CYP11B2 to IC50 for human CYP11B1.
In the next data set the target is T1, Aromatase (Homo sapiens, UniProt P11511).
T1 sequence (P11511 whole entry): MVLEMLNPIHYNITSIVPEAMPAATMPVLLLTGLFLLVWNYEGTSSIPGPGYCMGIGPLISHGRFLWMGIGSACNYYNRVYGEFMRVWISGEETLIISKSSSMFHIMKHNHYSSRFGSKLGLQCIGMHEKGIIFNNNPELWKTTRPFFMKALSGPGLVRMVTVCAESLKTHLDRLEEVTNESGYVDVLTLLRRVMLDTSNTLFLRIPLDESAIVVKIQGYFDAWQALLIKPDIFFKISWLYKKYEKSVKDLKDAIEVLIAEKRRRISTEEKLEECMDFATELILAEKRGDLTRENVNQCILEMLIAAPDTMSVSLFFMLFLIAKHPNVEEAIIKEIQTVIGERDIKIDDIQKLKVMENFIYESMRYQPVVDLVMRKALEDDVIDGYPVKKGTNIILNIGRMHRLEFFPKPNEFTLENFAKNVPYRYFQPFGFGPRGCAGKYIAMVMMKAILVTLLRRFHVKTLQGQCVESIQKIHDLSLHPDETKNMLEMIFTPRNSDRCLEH
The experiment in a line: Inhibition of human CYP19 expressed in hamster fibroblast using 500 nM [1beta-3H] androstenedione as substrate by HPLC analysis.

The target of data set [2] is T2, Cytochrome P450 11B2, mitochondrial (Homo sapiens, UniProt P19099).
T2 sequence (P19099 whole entry): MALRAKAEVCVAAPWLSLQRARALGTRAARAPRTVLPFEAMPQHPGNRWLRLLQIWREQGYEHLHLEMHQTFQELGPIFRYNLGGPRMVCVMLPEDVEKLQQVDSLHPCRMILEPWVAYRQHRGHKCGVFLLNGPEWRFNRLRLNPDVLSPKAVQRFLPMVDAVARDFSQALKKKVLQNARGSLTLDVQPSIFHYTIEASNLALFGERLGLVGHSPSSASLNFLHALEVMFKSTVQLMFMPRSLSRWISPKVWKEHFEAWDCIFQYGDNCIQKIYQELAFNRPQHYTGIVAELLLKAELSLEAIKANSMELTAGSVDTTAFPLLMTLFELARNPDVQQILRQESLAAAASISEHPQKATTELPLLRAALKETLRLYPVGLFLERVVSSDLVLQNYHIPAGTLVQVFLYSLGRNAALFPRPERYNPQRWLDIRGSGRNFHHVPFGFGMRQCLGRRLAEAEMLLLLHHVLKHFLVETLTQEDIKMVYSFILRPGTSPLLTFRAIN
Nature of the data set: Inhibition of human CYP11B2 expressed in hamster fibroblast using 100 nM [3H]-11-deoxycorticosterone as substrate after 45 mins by HPLC analysis.

In data set [3] the target is T3, Cytochrome P450 11B1, mitochondrial (Homo sapiens, UniProt P15538).
T3 sequence (P15538 whole entry): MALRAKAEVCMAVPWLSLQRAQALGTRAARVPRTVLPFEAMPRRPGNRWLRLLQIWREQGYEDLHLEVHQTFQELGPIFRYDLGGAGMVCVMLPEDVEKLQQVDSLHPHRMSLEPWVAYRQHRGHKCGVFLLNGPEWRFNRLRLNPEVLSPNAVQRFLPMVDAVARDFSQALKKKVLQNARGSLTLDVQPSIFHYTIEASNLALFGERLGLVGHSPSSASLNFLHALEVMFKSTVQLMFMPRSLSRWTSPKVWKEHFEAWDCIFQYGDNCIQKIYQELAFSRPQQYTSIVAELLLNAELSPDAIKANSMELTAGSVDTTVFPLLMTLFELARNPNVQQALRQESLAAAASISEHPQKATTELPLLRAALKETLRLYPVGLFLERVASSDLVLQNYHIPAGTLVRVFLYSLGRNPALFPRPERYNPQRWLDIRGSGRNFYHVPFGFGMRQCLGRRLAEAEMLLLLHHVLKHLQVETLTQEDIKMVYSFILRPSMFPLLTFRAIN
The experiment in a line: Inhibition of human CYP11B1 expressed in hamster fibroblast using 100 nM [3H]-11-deoxycorticosterone as substrate after 25 mins by HPLC analysis.

For data set [4], the target named is T4, Cytochrome P450 11B1, mitochondrial (Rattus norvegicus, UniProt P15393).
T4 sequence (P15393 whole entry): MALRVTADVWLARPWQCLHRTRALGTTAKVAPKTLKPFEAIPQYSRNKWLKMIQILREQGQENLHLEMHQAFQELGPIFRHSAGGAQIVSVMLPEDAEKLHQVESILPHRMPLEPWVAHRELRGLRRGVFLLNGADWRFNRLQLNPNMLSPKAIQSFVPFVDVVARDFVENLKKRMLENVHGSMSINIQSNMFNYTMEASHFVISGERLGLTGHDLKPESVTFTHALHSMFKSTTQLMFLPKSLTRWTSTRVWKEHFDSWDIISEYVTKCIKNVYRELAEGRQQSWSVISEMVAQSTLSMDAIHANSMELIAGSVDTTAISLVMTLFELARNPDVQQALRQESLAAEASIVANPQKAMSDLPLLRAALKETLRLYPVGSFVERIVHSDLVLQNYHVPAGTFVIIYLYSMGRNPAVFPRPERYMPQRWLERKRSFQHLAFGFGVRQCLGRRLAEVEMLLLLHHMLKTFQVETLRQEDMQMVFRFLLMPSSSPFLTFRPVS
The experiment in a line: Inhibition of rat CYP11B1 expressed in hamster fibroblast using 500 nM [3H]-11-deoxycorticosterone as substrate after 7 hrs by HPLC analysis.

By IC50 is commonly meant the concentration that gives 50% inhibition. High values mean weaker potency, low ones greater potency. `O=[N+]([O-])c1ccc(-c2cccnc2)c(OCCc2ccccc2)c1` gave a Retention_time in data set [1] of 9.13 min. In the data set filed under Homo sapiens, the Selectivity Index came out at 4.1. Besides, the IC50 at Aromatase amounted to 75 nM; in data set [2] it was 53 nM; in data set [3] it was 13 nM; in data set [4], 1310 nM.
`O=[N+]([O-])c1ccc(Cc2cccnc2)c(OCCc2ccccc2)c1` returned a Retention_time in data set [1] of 9.7 min. Moreover, in the data set filed under Homo sapiens, the Selectivity Index stood at 1.3. Moreover, the IC50 against Aromatase came to 128 nM; in data set [2], 246 nM; in data set [3] it was 182 nM; in data set [4], 706 nM.

(Values after ChEMBL document CHEMBL3421536, “Identification of 4-(4-nitro-2-phenethoxyphenyl)pyridine as a promising new lead for discovering inhibitors of both human and rat 11β-Hydroxylase” (Eur J Med Chem, 2015).)
